From PubChem BioAssay AID1959 (Broad Institute, 2009)
Active and inactive are the calls of the source.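 How the source made its calls: active means growth-inhibition EC50 no more than tenfold above the top tested dose; inconclusive means flat fit between 30% and 70% inhibition, or unreliable fit; inactive means EC50 more than tenfold above the top tested dose.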

Tested on: E. coli NEB5alpha growth, BacTiter-Glo luminescence, 4 h
Test: Escherichia coli growth inhibition, dose response, counter-screen for MEX-5/POS-1 RNA-binding inhibitor project, luminescence, NEB5alpha (AID 1959);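 further: pUC19-transformed ampicillin-resistant cells grown in LB with ampicillin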

Compound	EC50
N#CC1=C(N)OC2=C(C(=O)CC(c3ccccc3)C2)C1c1ccc2c(c1)OCO2 (configuration not stated)	> 11 µM (inactive)
COC(=O)c1cc(C(=O)OC)cc(-n2c(C)cc(C(=O)CC#N)c2C)c1	> 11 µM (inactive)
CCOC(=O)c1c(-n2c(C)cc(C=C3C(=O)NC(=O)NC3=O)c2C)sc2c1CCCC2	> 11 µM (inactive)
N#Cc1c(N)n(-c2cccc(C(=O)O)c2)c2nc3ccccc3nc12	> 11 µM (inactive)
Cc1nc(S/C(=C/c2ccc(OCc3ccc(C(=O)O)cc3)cc2)C(=O)O)n[nH]1	> 11 µM (inactive)
COc1ccccc1N1CC(C(=O)Nc2nnc(SCC(=O)NC(C)C)s2)CC1=O (configuration not stated)	> 11 µM (inactive)
Cc1ccc(O)c(-c2cc(C(=O)Nc3ccc(S(=O)(=O)Nc4nccc(C)n4)cc3)[nH]n2)c1	> 11 µM (inactive)
COc1ccc(OC)c(S(=O)(=O)NC2CCN(Cc3ccccc3)CC2)c1	> 11 µM (inactive)
COc1cccc(NS(=O)(=O)c2ccc3c(c2)C2C=CCC2C(c2ccc(C(=O)O)cc2)N3)c1 (configuration not stated)	> 11 µM (inactive)
Cn1nc(C(F)(F)F)cc1-c1ccc(/C=C(\C#N)C(=O)c2ccccc2)s1	> 11 µM (inactive)
CCOc1cccc(=O)c2c(C)n(-c3ccc(C(=O)O)cc3)c(C)c12	> 11 µM (inactive)
C=CCOc1ccc(C2C(C(=O)c3cccs3)=C(O)C(=O)N2c2nnc(C)s2)cc1 (configuration not stated)	> 11 µM (inactive)
NS(=O)(=O)c1ccc(-c2ccc(/C=C3\NC(=S)NC3=O)o2)cc1	> 11 µM (inactive)
Cc1c(C(=O)O)cccc1-n1c(C)cc(/C=C2\C(=O)NC(=O)N(c3ccc4c(c3)OCO4)C2=O)c1C	> 11 µM (inactive)
CN1C=C/C(=C\c2cc[n+](C)c3ccccc23)c2ccccc21	> 11 µM (inactive)
Cc1ccc(S(=O)(=O)NNC(=S)NC(=O)c2ccc([N+](=O)[O-])cc2)cc1	> 11 µM (inactive)
Cc1ccc(Cl)c2c1=NC(=O)C=2c1[nH]c(=S)[nH]c1O	> 11 µM (inactive)
COc1ccc(N=Cc2c(O)n(-c3cccc(C)n3)c(=O)c3ccccc23)cc1	> 11 µM (inactive)
O=C(CCN1C(=O)/C(=C\C=C\c2ccccc2)SC1=S)Nc1ccc(C(=O)O)cc1	> 11 µM (inactive)
COc1ccc(C2C(C#N)=C(N)OC3=C2C(=O)CCC3)c(OC)c1OC (configuration not stated)	> 11 µM (inactive)
CNC(=O)c1c(NC(=O)c2ccc(S(=O)(=O)N3CCCCC3C)cc2)sc2c1CCN(C)C2 (configuration not stated)	> 11 µM (inactive)
N=c1c(C(=O)NC2CCCC2)cc2c(=O)n3ccccc3nc2n1Cc1ccccc1	> 11 µM (inactive)
Cc1ccc(CS(=O)Cc2ccc(C(=O)N3CCN(c4ccccc4)CC3)o2)cc1 (configuration not stated)	> 11 µM (inactive)
CN1CCN(/C=N/C2=C(C#N)C(c3ccccc3)C3=C(CC(C)(C)CC3=O)O2)CC1 (configuration not stated)	> 11 µM (inactive)

Compound	EC50
COc1ccc(N2C(=O)NC(=O)/C(=C/c3ccc([N+](=O)[O-])s3)C2=O)cc1	> 11 µM (inactive)
CN1C(=O)c2cccc3c(N)ccc(c23)C1=O	> 11 µM (inactive)
CCOC(=O)c1c2c3c(cccc3n(C)c1=O)C(=O)c1ccccc1-2	> 11 µM (inactive)
COc1ccc(C(=O)c2sc3nc(C)cc(-c4cccs4)c3c2N)cc1OC	> 11 µM (inactive)
Cc1ccc(/C(O)=C/c2nc3cc(C)ccc3oc2=O)cc1	> 11 µM (inactive)
C/C(O)=c1/ccc2cccc3nc(C)nc1c23	> 11 µM (inactive)
Cn1c(=O)[nH]c2cc(Cl)cnc21	> 11 µM (inactive)
O=C(/C=C/c1ccco1)NC(=S)Nc1cccc(C(=O)O)c1	> 11 µM (inactive)
CCOc1cccc(N2C(=O)/C(=C/c3ccco3)C(=O)NC2=S)c1	> 11 µM (inactive)
C=CCN1C(=O)NC(=O)/C(=C/c2ccc(OC)c(CSc3ccccn3)c2)C1=O	> 11 µM (inactive)
Cc1cc(C)nc(NN2C(=O)C=CC2=O)n1	> 11 µM (inactive)
O=C(O)CCC(=O)N1N=C(c2cccs2)CC1c1cn(-c2ccccc2)nc1-c1ccccc1 (configuration not stated)	> 11 µM (inactive)
Cc1cc(C(=O)O)ccc1-n1c(C)cc(/C=C(/C#N)C(=O)Nc2ccccc2)c1C	> 11 µM (inactive)
Cc1c(N)cc(N)cc1C(=O)O	> 11 µM (inactive)
Oc1ccc(-c2cnns2)c(O)c1	> 11 µM (inactive)
O=C(O)CCc1ccc(-c2ccccc2)n1-c1ccc(C(=O)O)cc1	> 11 µM (inactive)
CCOCCCn1c(=NC(=O)c2cccs2)c(C#N)cc2c(=O)n3ccccc3nc21	> 11 µM (inactive)
CCC(=NCCCN(C)C)c1c(O)n(-c2ccc(OC)cc2)c(=O)[nH]c1=O	> 11 µM (inactive)
O=C(Nc1ccccc1)c1nn(-c2ccccc2)c(=O)cc1C(F)(F)F	> 11 µM (inactive)
CCOCCCNc1nc2nc3ccc(C)cn3c(=O)c2cc1C(=O)NCC1CCCO1 (configuration not stated)	> 11 µM (inactive)
c1ccc2[nH]c3cc4ncnc4cc3nc2c1	> 11 µM (inactive)
COc1ccc(N2C(=O)/C(=C/c3ccc(C)o3)C(=O)NC2=S)cc1	> 11 µM (inactive)
O=C1c2ccccc2C(=O)c2[nH]cnc21	> 11 µM (inactive)
